Measured values as given in article PMC11357054, “Azobenzenesulfonamide Carbonic Anhydrase Inhibitors as New Weapons to Fight Helicobacter pylori: Synthesis, Bioactivity Evaluation, In Vivo Toxicity, and Computational Studies” (Pharmaceuticals, 2024).
Values after ≈ are worked out from the molar mass of the structure shown. Like-named read-outs stand apart in the source and are kept apart here.

Assays:
[1] = target: T1, HpαCA (Helicobacter pylori, UniProt B5Z8I0); test: stopped-flow CO2 hydration; assay type: biochemical
T1 construct: gene HPG27_1129; recombinant, obtained in-house; PDB 4XFW is given for docking only
T1 sequence (B5Z8I0 22-247): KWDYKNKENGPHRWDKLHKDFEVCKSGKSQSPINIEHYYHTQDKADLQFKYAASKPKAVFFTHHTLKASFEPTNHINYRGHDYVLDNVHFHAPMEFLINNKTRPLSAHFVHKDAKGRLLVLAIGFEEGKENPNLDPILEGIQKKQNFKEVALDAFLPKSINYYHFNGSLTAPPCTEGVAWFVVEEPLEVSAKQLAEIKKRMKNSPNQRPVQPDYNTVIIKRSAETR

[2] = target: T2, EcoβCA (Escherichia coli, UniProt P61517); test: biochemical; conditions: read-out: Bacterial Isoforms / Eco βCA
T2 construct: gene can; recombinant, obtained in-house
T2 sequence (P61517 whole entry, canonical isoform): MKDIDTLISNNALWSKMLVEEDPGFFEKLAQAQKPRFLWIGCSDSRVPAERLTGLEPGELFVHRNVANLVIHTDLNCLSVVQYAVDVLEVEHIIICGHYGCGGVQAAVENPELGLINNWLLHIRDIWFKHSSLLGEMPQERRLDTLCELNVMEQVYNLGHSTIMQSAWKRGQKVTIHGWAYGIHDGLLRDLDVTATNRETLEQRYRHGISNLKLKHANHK
Protocol: (§1) An Applied Photophysics stopped-flow instrument was used to evaluate the ability of the test compounds to inhibit CA-catalyzed CO2 hydration. […] The CO2 concentrations ranged from 1.7 to 17 mM for the determination of the kinetic parameters and inhibition constants. Enzyme concentrations spanned from 5 to 12 nM. Stock solutions of the inhibitor (0.1 mM) were prepared in distilled–deionized water, and dilutions up to 0.01 nM were prepared with the assay buffer. Inhibitor and enzyme solutions were preincubated for 15 min at r.t. for the formation of the E–I complex. The inhibition constants were obtained by non-linear least-squares methods using PRISM 3 and the Cheng–Prusoff equation and represent the mean from at least three different determinations. Apart from human CAs I and II purchased from Merck, all the bacterial CAs were recombinant and obtained in-house. Compounds 4a–j and 5a–j were tested on a large panel of human and bacterial isoenzymes belonging to different CA families, evaluating their inhibitory activity through the CO2 hydration activity assay by means of the stopped-flow technique, and the inhibitory constants (KIs) are reported in Table 1 and Table 2, respectively. In particular, we tested the hypoxic tumor-associated hCAs IX and XII, and bacterial isoforms involved in several infectious diseases, such as those caused by H. pylori (HpαCA and HpβCA), Porphyromonas gingivalis (PgiβCA and PgiγCA), Escherichia coli (EcoβCA), Pseudomonas aeruginosa (PsCA3, belonging to the β-class), Mammaliicoccus (Staphylococcus) sciuri (MscCA, belonging to the β-class), and Streptococcus mutans (SmuCA, belonging to the β-class). The inhibition of human physiologically relevant isoforms I and II was also investigated in order to assess the compounds’ selectivity. Our main aim was to rationalize the structural requirements of sulfonamide-containing compounds useful for targeting HpCAs, in order to gain a larger knowledge for further optimization studies focusing on isoform selectivity. In fact, although the tested human and bacterial isoforms present a low degree of sequence similarity, they catalyze the same reaction and contain the catalytically active zinc ion in the active site. Thus, a comparison of the data obtained from different members of this large superfamily has a high relevance in the field. By observing Table 1 and Table 2, interesting structure–activity relationship (SAR) considerations can be inferred.

[3] = target: T3, PsCA3 (Pseudomonas aeruginosa, UniProt Q9HVB9); test: biochemical; conditions: read-out: Bacterial Isoforms / Ps CA3
T3 construct: gene PA4676; recombinant, obtained in-house
T3 sequence (Q9HVB9 1-215): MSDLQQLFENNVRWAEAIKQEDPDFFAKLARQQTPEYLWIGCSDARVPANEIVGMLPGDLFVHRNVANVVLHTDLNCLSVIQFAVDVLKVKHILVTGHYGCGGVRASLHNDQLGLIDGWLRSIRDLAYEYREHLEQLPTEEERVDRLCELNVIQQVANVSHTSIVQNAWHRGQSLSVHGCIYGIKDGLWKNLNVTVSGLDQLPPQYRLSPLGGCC
Protocol: as §1

[4] = target: T4, hCA I (Homo sapiens, UniProt P00915); test: biochemical; conditions: read-out: Human Isoforms / hCA I
T4 construct: gene CA1; purchased from Merck
T4 sequence (P00915 2-261): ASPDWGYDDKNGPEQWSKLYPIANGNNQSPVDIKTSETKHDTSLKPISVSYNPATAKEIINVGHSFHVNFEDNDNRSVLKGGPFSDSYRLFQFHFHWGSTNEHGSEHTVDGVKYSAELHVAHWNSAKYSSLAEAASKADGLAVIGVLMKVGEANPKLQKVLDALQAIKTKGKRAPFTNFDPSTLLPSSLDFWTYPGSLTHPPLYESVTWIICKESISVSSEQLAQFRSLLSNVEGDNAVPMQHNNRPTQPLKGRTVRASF
Protocol: as §1

[5] = target: T5, hCA II (Homo sapiens, UniProt P00918); test: biochemical; conditions: read-out: Human Isoforms / hCA II
T5 construct: gene CA2; purchased from Merck
Protocol: as §1

[6] = target: T6, hCA IX (Homo sapiens, UniProt Q16790); test: biochemical; conditions: read-out: Human Isoforms / hCA IX
T6 construct: gene CA9
Protocol: as §1

[7] = target: T7, hCA XII (Homo sapiens, UniProt O43570); test: biochemical; conditions: read-out: Human Isoforms / hCA XII
T7 construct: gene CA12
T7 sequence (O43570 30-289 limits assumed): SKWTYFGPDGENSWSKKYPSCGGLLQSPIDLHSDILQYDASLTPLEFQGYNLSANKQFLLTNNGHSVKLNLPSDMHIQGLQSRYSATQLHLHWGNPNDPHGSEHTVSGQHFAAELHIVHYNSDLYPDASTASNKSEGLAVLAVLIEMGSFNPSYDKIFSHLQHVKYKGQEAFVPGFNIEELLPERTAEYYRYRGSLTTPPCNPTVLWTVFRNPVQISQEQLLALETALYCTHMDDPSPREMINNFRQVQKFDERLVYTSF
Protocol: as §1

[8] = system: T8, H. pylori ATCC 43504; test: microbe, parasite or virus in culture; design: species or system Helicobacter pylori ATCC 43504; MIC by broth microdilution, alamarBlue and CFU count; MBC by CFU count; conditions: Helicobacter pylori, ATCC43504
T8 construct: ATCC 43504
Protocol: H. pylori ATCC 43504 was cultured on a Columbia Agar base (Becton Dickinson and Company, Franklin Lakes, NJ, USA) supplemented with 10% horse serum (Merck, St. Louis, MO, USA) and 0.25% yeast extract (Oxoid Ltd., Hampshire, UK), incubated at 37 °C for 72 h in a microaerophilic atmosphere (CampyGen, Thermo Fisher Scientific, Milan, Italy). Colonies were collected and transferred into 10 mL of Brain Heart Infusion broth (BHI, Oxoid Ltd., Hampshire, UK) supplemented with 5% (v/v) of fetal bovine serum (FBS, Merck, Milan, Italy) and incubated overnight at 37 °C, at 125 rpm under microaerophilic conditions. After 18 h of incubation, the broth culture was diluted to obtain a bacterial suspension of 10^6 CFU/mL. MICs were determined by three different assays: the broth micro-dilution method, the alamarBlue assay, and the CFU count. […] This bacterium was selected based on the inhibitory potency evidenced by the two series of azobenzenesulfonamides against the HpCAs.

[9] = target: T4, hCA I; test: stopped-flow CO2 hydration; assay type: biochemical; conditions: read-out: KI (nM) * / Human Isoforms / hCA I
Description: stopped-flow CO2 hydration on hCA I

[10] = target: T5, hCA II; test: stopped-flow CO2 hydration; assay type: biochemical; conditions: read-out: KI (nM) * / Human Isoforms / hCA II
Description: stopped-flow CO2 hydration on hCA II

[11] = target: T6, hCA IX; test: stopped-flow CO2 hydration; assay type: biochemical; conditions: read-out: KI (nM) * / Human Isoforms / hCA IX
Description: stopped-flow CO2 hydration on hCA IX

[12] = target: T9, PgiγCA; test: stopped-flow CO2 hydration; assay type: biochemical, Porphyromonas gingivalis; conditions: pH […] HEPES, […] Na2SO4, […] min preincubation, r.t.; read-out: KI (nM) * / Bacterial Isoforms / Pgi γCA
T9 construct: gene PgiCA; recombinant, obtained in-house

[13] = target: T2, EcoβCA; test: stopped-flow CO2 hydration; assay type: biochemical; conditions: read-out: KI (nM) * / Bacterial Isoforms / Eco βCA
[14] = target: T7, hCA XII; test: stopped-flow CO2 hydration; assay type: biochemical; conditions: read-out: KI (nM) * / Human Isoforms / hCA XII
Description: stopped-flow CO2 hydration on hCA XII

[15] = target: T10, HpβCA (Helicobacter pylori, UniProt Q9ZN54); test: stopped-flow CO2 hydration; assay type: biochemical; conditions: read-out: KI (nM) * / Bacterial Isoforms / Hp βCA
T10 construct: gene cynT; recombinant, obtained in-house
T10 sequence (Q9ZN54 1-221): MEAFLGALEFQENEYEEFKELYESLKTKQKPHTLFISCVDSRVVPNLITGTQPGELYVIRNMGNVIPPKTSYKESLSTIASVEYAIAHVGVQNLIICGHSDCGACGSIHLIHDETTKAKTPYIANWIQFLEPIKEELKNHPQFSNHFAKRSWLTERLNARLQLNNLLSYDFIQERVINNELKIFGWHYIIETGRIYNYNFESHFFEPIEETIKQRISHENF

[16] = target: T3, PsCA3; test: stopped-flow CO2 hydration; assay type: biochemical; conditions: read-out: KI (nM) * / Bacterial Isoforms / Ps CA3
[17] = target: T11, PgiβCA; test: stopped-flow CO2 hydration; assay type: biochemical, Porphyromonas gingivalis; conditions: pH […] HEPES, […] Na2SO4, […] min preincubation, r.t.; read-out: KI (nM) * / Bacterial Isoforms / Pgi βCA
T11 construct: gene PgiCAb; recombinant, obtained in-house

[18] = read-out: KI (nM) / Bacterial Isoforms / Hp αCA
[19] = read-out: KI (nM) * / Bacterial Isoforms / Hp αCA

Compound	Ki [1, 18] [nM]	Ki [2] [nM]	Ki [3] [nM]	Ki [4] [nM]	Ki [5] [nM]	Ki [6] [nM]	Ki [7] [nM]	MBC [8] [µg/mL]	MIC [8] [µg/mL]	Ki [9] [nM]	Ki [10] [nM]	Ki [11] [nM]	Ki [12] [nM]	Ki [1, 19] [nM]	Ki [13] [nM]	Ki [14] [nM]	Ki [15] [nM]	Ki [16] [nM]	Ki [17] [nM]
N#Cc1ccc(S(=O)(=O)Nc2ccc(N=Nc3ccccc3)cc2)cc1 [5b]	75.6	73400	5760	359	> 100000	614	760	64 (≈ 177 µM)	32 (≈ 88.3 µM)										
O=S(=O)(Nc1ccc(N=Nc2ccccc2)cc1)c1ccc(Cl)s1 [5g]	55.8	59200	> 100000	905	> 100000	4040	4120	16 (≈ 42.3 µM)	16 (≈ 42.3 µM)										
O=[N+]([O-])c1cccc(S(=O)(=O)Nc2ccc(N=Nc3ccccc3)cc2)c1 [5d]	70.9	9080	90200	6750	> 100000	601	215	64 (≈ 167 µM)	16 (≈ 41.8 µM)										
N#Cc1ccc(S(=O)(=O)Nc2ccc(N=Nc3ccccc3)cc2)c(Cl)c1 [5c]	77.6	9210	> 100000	908	24700	9200	1750	8 (≈ 20.2 µM)	4 (≈ 10.1 µM)										
COc1ccc(S(=O)(=O)Nc2ccc(N=Nc3ccccc3)cc2)c(OC)c1 [5f]	71.3	77700	> 100000	905	> 100000	5740	894	4 (≈ 10.1 µM)	4 (≈ 10.1 µM)										
CCS(=O)(=O)Nc1ccc(N=Nc2ccccc2)cc1 [5j]	68.4	> 100000	69800	931	> 100000	7070	3340	16 (≈ 55.3 µM)	16 (≈ 55.3 µM)										
Cc1ccc(S(=O)(=O)Nc2ccc(N=Nc3ccccc3)cc2)cc1[N+](=O)[O-] [5e]	604	59000	> 100000	853	> 100000	792	847	16 (≈ 40.4 µM)	8 (≈ 20.2 µM)										
COc1cc(O)ccc1/N=N/c1ccc(S(N)(=O)=O)cc1 [4c, (E)-4-((4-hydroxy-2-methoxyphenyl)diazenyl)benzenesulfonamide]								16 (≈ 52.1 µM)	8 (≈ 26 µM)	84.9	5.4	545	2000	70.9	96.3	34.7	17.1	221	3630
O=S(=O)(Nc1ccc(N=Nc2ccccc2)cc1)c1ccccc1 [5a]	460	6950	9280	209	> 100000	3980	955	32 (≈ 94.8 µM)	16 (≈ 47.4 µM)										
COc1cc(/N=N/c2ccc(S(N)(=O)=O)cc2)ccc1O [4b, (E)-4-((4-hydroxy-3-methoxyphenyl)diazenyl)benzenesulfonamide]								32 (≈ 104 µM)	32 (≈ 104 µM)	34.8	3.3	831	837	120	95.8	21.8	49.7	702	1920
O=S(=O)(Cc1ccccc1)Nc1ccc(N=Nc2ccccc2)cc1 [5h]	79	88500	> 100000	5530	> 100000	4490	2250	128 (≈ 364 µM)	64 (≈ 182 µM)										
